Reference: patent publication US8940516B2, “Method for the synthesis of chiral cyanohydrins via a hydroxynitrile lyase from brassicaceae” (Evocatal GmbH, priority 2006, dated 2015)
“Also recorded” adds a separate entry of the source. Read-outs that look alike come from different tables or passages of the source.

How the values were obtained:
Format in all cases: biochemical
AtHNL [1] = target: T1, AtHNL (Arabidopsis thaliana, UniProt Q9LFT6)
T1 construct: made in house; host or cells: E. coli BL21(DE3), plasmid pAtHNL (pET28a, NcoI/XhoI)
T1 sequence (Q9LFT6 1-258): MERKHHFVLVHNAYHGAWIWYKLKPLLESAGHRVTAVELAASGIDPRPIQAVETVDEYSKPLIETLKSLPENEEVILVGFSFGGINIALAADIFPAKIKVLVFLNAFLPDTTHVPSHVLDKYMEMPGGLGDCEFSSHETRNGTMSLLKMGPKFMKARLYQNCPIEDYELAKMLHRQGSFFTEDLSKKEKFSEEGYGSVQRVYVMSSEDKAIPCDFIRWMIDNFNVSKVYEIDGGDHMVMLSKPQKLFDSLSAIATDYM

AtHNL [2] = target: T1, AtHNL; conditions: pH 5
[3] = Activity of AtHNL preparations from fed batch fermentation
[4] = HNL activity test of cloned and expressed Arabidopsis proteins resembling MeHNL; conditions: cloned, expressed heterologously in E. coli; listed as At5g10300
Text: The Arabidopsis thaliana plant (mouse-ear cress) is a model organism (accessible genome, short generation period) and thus has been comprehensively investigated. The genome has been completely sequenced and recorded in sequence databases. Examples of such databases are, for example, the “Genbank” as a collection of all published sequences, or TAIR as a database restricted to a single organism (in this case Arabidopsis). Because of the great strides made in molecular biology, many new sequences are being input into the appropriate databases than can be individually assessed and described. Thus, until now genes which have been identified as true genes but which have not been further investigated have automatically been ascribed types by appropriate computer algorithms because of their similarities to known sequences. Whether the function stated in this description is true, however, must be individually ascertained for each protein. […] The increase in the extinction at 280 nm was monitored for 2 min. […] Self-degradation of the cyanohydrin was determined in a control sample without enzyme and subtracted from the values measured for the enzyme sample. […]

[5] = Demonstration of stereoselectivity (chiral gas chromatography and cleavage test with enantiomerically pure benzaldehyde cyanohydrin)
[6] = Point mutations in SEQ ID NO: 1 (AtHNL variants)
[7] = after Q-Sepharose, desalting and lyophilization

In the case of CCC(C)=O [2-butanone], the “ee (R) (%)” value (AtHNL [1]) is reported as 0% and the “Transformation (%)” value (AtHNL [1]; pH 4) is reported as over 95%.

With CCCCCC(C)=O [2-heptanone] the “ee (R) (%)” value (AtHNL [1]) was 9% and the “Transformation (%)” value (AtHNL [1]; pH 4) was 9%.

With CCCCC(C)=O [2-hexanone] the “ee (R) (%)” value (AtHNL [1]) was 0%.

With CCCCCCC(C)=O [2-octanone] the “Transformation (%)” value (AtHNL [1]; pH 4) was 0%.

With CCCC(C)=O [2-pentanone] the “ee (R) (%)” value (AtHNL [1]) was 0% and the “Transformation (%)” value (AtHNL [1]; pH 4) was over 95%.

In the case of O=Cc1cccc(Oc2ccccc2)c1 [3-phenoxybenzaldehyde], the “ee (R) (%)” value (AtHNL [1]) is reported as 78% and the “Transformation (%)” value (AtHNL [1]; pH 4) is reported as 73%.

In the case of O=Cc1ccc(Cl)cc1 [4-chlorobenzaldehyde], the “ee (R) (%)” value (AtHNL [1]) is reported as 95% and the “Transformation (%)” value (AtHNL [1]; pH 4) is reported as 98%.

In the case of COc1ccc(C=O)cc1 [4-methoxybenzaldehyde], the “Transformation (%)” value (AtHNL [1]; pH 4) is reported as 22.6%.

With CC(O)C#N (stereo not shown) [Acetaldehyde cyanohydrin] the “Specify activity (U/mg), HCN-Test (see Ib above)” value (AtHNL [2]) was under 0.05 U/mg.

In the case of O=Cc1ccccc1 [Benzaldehyde], the “Transformation (%)” value (AtHNL [1]; pH 4) is reported as over 99.9%.

In the case of CC(=O)CCc1ccccc1 [Benzyl acetone], the “ee (R) (%)” value (AtHNL [1]) is reported as 40% and the “Transformation (%)” value (AtHNL [1]; pH 4) is reported as 9%.

With CCCCCCC=O [Heptanal] the “ee (R) (%)” value (AtHNL [1]) was over 80% and the “Transformation (%)” value (AtHNL [1]; pH 4) was over 99.9%.

In the case of CCCCCC=O [Hexanal], the “Transformation (%)” value (AtHNL [1]; pH 4) is reported as 98%.

With CCCCCCCC=O [Octanal] the “Transformation (%)” value (AtHNL [1]; pH 4) was 89%.

For O=CCc1ccccc1 [Phenylacetaldehyde], the “ee (R) (%)” value (AtHNL [1]) was 71% and the “Transformation (%)” value (AtHNL [1]; pH 4) was 90%.

In the case of CCC(O)C#N (stereo not shown) [Propionaldehyde cyanohydrin], the “Specify activity (U/mg), HCN-Test (see Ib above)” value (AtHNL [2]) is reported as under 0.05 U/mg.

For C=CCc1ccccc1 [compound 17], the “Transformation (%)” value (AtHNL [1]) was 97% and the “ee (R) (%)” value (AtHNL [1]) was 96%.

In the case of O=CCCc1ccccc1 [compound 18], the “Transformation (%)” value (AtHNL [1]) is reported as 99% and the “ee (R) (%)” value (AtHNL [1]) is reported as 68%.

For O=Cc1cccs1 [compound 19], the “Transformation (%)” value (AtHNL [1]) was 68%.

With CCCCCC=O [compound 20] the “Transformation (%)” value (AtHNL [1]) was 99% and the “ee (R) (%)” value (AtHNL [1]) was 98%.

With CCCCCCCCCC=O [compound 21] the “Transformation (%)” value (AtHNL [1]) was 56% and the “ee (R) (%)” value (AtHNL [1]) was over 95%.

With CCC/C=C/C=O [compound 22] the “Transformation (%)” value (AtHNL [1]) was 53%.

For CC(=O)CCC=C(C)C [compound 23], the “Transformation (%)” value (AtHNL [1]) was 0%.

In the case of CCCCC(C)=O [compound 24], the “Transformation (%)” value (AtHNL [1]) is reported as 48% and the “ee (R) (%)” value (AtHNL [1]) is reported as 95%.

With CCCCCCCCC(C)=O [compound 25] the “Transformation (%)” value (AtHNL [1]) was 2%.

In the case of O=C1CCCCC1 [compound 26], the “Transformation (%)” value (AtHNL [1]) is reported as 94%.

In the case of CC(=O)c1ccccc1 [compound 27], the “Transformation (%)” value (AtHNL [1]) is reported as 7%.

For CC(=O)c1ccccc1F [compound 28], the “Transformation (%)” value (AtHNL [1]) was 8% and the “ee (R) (%)” value (AtHNL [1]) was 95%.

With CC(=O)CCc1ccccc1 [compound 29] the “Transformation (%)” value (AtHNL [1]) was 1%.

B1: AtHNL: hydroxynitrile lyase from Arabidopsis thaliana, polypeptide of the invention, SEQ ID NO: 1 (protein, listed as Arabidopsis thaliana)
chain: MERKHHFVLVHNAYHGAWIWYKLKPLLESAGHRVTAVELAASGIDPRPIQAVETVDEYSKPLIETLKSLPENEEVILVGFSFGGINIALAADIFPAKIKVLVFLNAFLPDTTHVPSHVLDKYMEMPGGLGDCEFSSHETRNGTMSLLKMGPKFMKARLYQNCPIEDYELAKMLHRQGSFFTEDLSKKEKFSEEGYGSVQRVYVMSSEDKAIPCDFIRWMIDNFNVSKVYEIDGGDHMVMLSKPQKLFDSLSAIATDYM
In the case of B1, the activity per lyophilisate [3, 7] is reported as 2.5 U/mg of lyophilisate, the specific activity [3, 7] is reported as “approximately 40 U/mg protein” and the specific activity ([3]; unrefined extract) is reported as 13.3 U/mg. For the same molecule, the volumetric activity ([3]; unrefined extract) was “approx 800 U/ml”, the “HNL activity (Remarks/misc)” value [4] was “high activity; also recorded: HNL activity (a poly-” and the stereoselectivity [5] was “Only the (R) enantiomer formed or was transformed”.

B2: L129W: AtHNL (SEQ ID NO: 1) with leucine 129 exchanged for tryptophan (protein, listed as Arabidopsis thaliana)
chain: MERKHHFVLVHNAYHGAWIWYKLKPLLESAGHRVTAVELAASGIDPRPIQAVETVDEYSKPLIETLKSLPENEEVILVGFSFGGINIALAADIFPAKIKVLVFLNAFLPDTTHVPSHVLDKYMEMPGGWGDCEFSSHETRNGTMSLLKMGPKFMKARLYQNCPIEDYELAKMLHRQGSFFTEDLSKKEKFSEEGYGSVQRVYVMSSEDKAIPCDFIRWMIDNFNVSKVYEIDGGDHMVMLSKPQKLFDSLSAIATDYM
In the case of B2, the “effect of the point mutation on substrate spectrum / enantioselectivity” value [6] is reported as “reversal of enantioselectivity”.

B3: D208N: AtHNL (SEQ ID NO: 1) with point mutation D208N, catalytic triad residue exchanged (protein, listed as Arabidopsis thaliana)
chain: MERKHHFVLVHNAYHGAWIWYKLKPLLESAGHRVTAVELAASGIDPRPIQAVETVDEYSKPLIETLKSLPENEEVILVGFSFGGINIALAADIFPAKIKVLVFLNAFLPDTTHVPSHVLDKYMEMPGGLGDCEFSSHETRNGTMSLLKMGPKFMKARLYQNCPIEDYELAKMLHRQGSFFTEDLSKKEKFSEEGYGSVQRVYVMSSENKAIPCDFIRWMIDNFNVSKVYEIDGGDHMVMLSKPQKLFDSLSAIATDYM
For B3, the “activity of the polypeptide after exchange of catalytic triad residues” value [6] was “no longer exhibited any activity”.

B4: S81A: AtHNL (SEQ ID NO: 1) with point mutation S81A, catalytic triad residue exchanged (protein, listed as Arabidopsis thaliana)
chain: MERKHHFVLVHNAYHGAWIWYKLKPLLESAGHRVTAVELAASGIDPRPIQAVETVDEYSKPLIETLKSLPENEEVILVGFAFGGINIALAADIFPAKIKVLVFLNAFLPDTTHVPSHVLDKYMEMPGGLGDCEFSSHETRNGTMSLLKMGPKFMKARLYQNCPIEDYELAKMLHRQGSFFTEDLSKKEKFSEEGYGSVQRVYVMSSEDKAIPCDFIRWMIDNFNVSKVYEIDGGDHMVMLSKPQKLFDSLSAIATDYM
In the case of B4, the “activity of the polypeptide after exchange of catalytic triad residues” value [6] is reported as “no longer exhibited any activity”.

B5: N12T: AtHNL (SEQ ID NO: 1) with asparagine 12 exchanged for threonine, preferably as double mutation with Y14C (protein, listed as Arabidopsis thaliana)
chain: MERKHHFVLVHTAYHGAWIWYKLKPLLESAGHRVTAVELAASGIDPRPIQAVETVDEYSKPLIETLKSLPENEEVILVGFSFGGINIALAADIFPAKIKVLVFLNAFLPDTTHVPSHVLDKYMEMPGGLGDCEFSSHETRNGTMSLLKMGPKFMKARLYQNCPIEDYELAKMLHRQGSFFTEDLSKKEKFSEEGYGSVQRVYVMSSEDKAIPCDFIRWMIDNFNVSKVYEIDGGDHMVMLSKPQKLFDSLSAIATDYM
For B5, the “effect of the point mutation on substrate spectrum / enantioselectivity” value [6] was “broadening of substrate spectrum to ketones”.

B6: Y14C: AtHNL (SEQ ID NO: 1) with tyrosine 14 exchanged for cysteine (protein, listed as Arabidopsis thaliana)
chain: MERKHHFVLVHNACHGAWIWYKLKPLLESAGHRVTAVELAASGIDPRPIQAVETVDEYSKPLIETLKSLPENEEVILVGFSFGGINIALAADIFPAKIKVLVFLNAFLPDTTHVPSHVLDKYMEMPGGLGDCEFSSHETRNGTMSLLKMGPKFMKARLYQNCPIEDYELAKMLHRQGSFFTEDLSKKEKFSEEGYGSVQRVYVMSSEDKAIPCDFIRWMIDNFNVSKVYEIDGGDHMVMLSKPQKLFDSLSAIATDYM
In the case of B6, the “effect of the point mutation on substrate spectrum / enantioselectivity” value [6] is reported as “reversal of enantioselectivity”.

B7: H236F: AtHNL (SEQ ID NO: 1) with point mutation H236F, catalytic triad residue exchanged (protein, listed as Arabidopsis thaliana)
chain: MERKHHFVLVHNAYHGAWIWYKLKPLLESAGHRVTAVELAASGIDPRPIQAVETVDEYSKPLIETLKSLPENEEVILVGFSFGGINIALAADIFPAKIKVLVFLNAFLPDTTHVPSHVLDKYMEMPGGLGDCEFSSHETRNGTMSLLKMGPKFMKARLYQNCPIEDYELAKMLHRQGSFFTEDLSKKEKFSEEGYGSVQRVYVMSSEDKAIPCDFIRWMIDNFNVSKVYEIDGGDFMVMLSKPQKLFDSLSAIATDYM
With B7 the “activity of the polypeptide after exchange of catalytic triad residues” value [6] was “no longer exhibited any activity”.
